Patent US6297043A, “Mumbaistatin, a process for it's production and its use as a pharmaceutical” (Aventis Pharma Deutschland GmbH, priority 1998, dated 2001)

Experiments:
[1] = tested on: phosphate/pyrophosphate translocase; experiment: effect on activity of phosphate/pyrophosphate translocase; format: biochemical
[2] = tested on: fructose-induced gluconeogenesis; experiment: glucose output of isolated rat hepatocytes: fructose-induced gluconeogenesis; format: cell-based
Protocol: (§1) Mumbaistatin was further evaluated in isolated rat hepatocytes for its effect on glucose output. It inhibits both fructose-induced gluconeogenesis and glucagon-induced glycogenolysis with IC50 values of about 0.3 μM and 0.6 μM, respectively.

[3] = tested on: glucagon-induced glycogenolysis; experiment: glucose output of isolated rat hepatocytes: glucagon-induced glycogenolysis; format: cell-based
Protocol: as §1

[4] = biological target: T1, rat liver microsomal glucose-6-phosphate translocase (Rattus norvegicus, UniProt F7EWB7); experiment: inhibition of rat liver microsomal glucose-6-phosphate translocase activity; format: biochemical
T1 construct: rat liver microsomal glucose-6-phosphate translocase; from tissue; host or cells: rat liver microsomes
T1 sequence (F7EWB7 1-429): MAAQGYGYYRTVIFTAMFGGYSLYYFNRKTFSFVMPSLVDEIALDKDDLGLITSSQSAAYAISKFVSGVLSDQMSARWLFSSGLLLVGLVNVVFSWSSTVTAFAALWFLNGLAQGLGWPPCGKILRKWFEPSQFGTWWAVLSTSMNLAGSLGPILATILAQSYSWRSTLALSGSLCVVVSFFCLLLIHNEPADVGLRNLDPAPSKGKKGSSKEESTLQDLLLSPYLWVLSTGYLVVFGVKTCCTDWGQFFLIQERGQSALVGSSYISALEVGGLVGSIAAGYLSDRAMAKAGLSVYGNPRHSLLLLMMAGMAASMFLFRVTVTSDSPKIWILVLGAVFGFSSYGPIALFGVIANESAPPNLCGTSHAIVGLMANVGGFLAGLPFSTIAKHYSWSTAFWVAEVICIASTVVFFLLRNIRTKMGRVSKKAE
Excerpt: (§2) If desired, DESMOPHEN® (polypropylene oxide) may be used as an antifoam agent in the fermenters. […] In the resulting culture broth, Mumbaistatin is present primarily in the culture filtrate and can thus be recovered by extraction of the culture filtrate with a water immiscible solvent such as, for example, ethyl acetate, dichloromethane, chloroform or butanol at pH 5-8, or by hydrophobic interaction chromatography using polymeric resins such as DIAION® HP-20 (Mitsubishi Chemical Industries Limited, Japan), AMBERLITE® XAD (Rohm and Haas Industries, U.S.A.), or activated charcoal, or by ion exchange chromatography at pH 5-8.
(§3) The production of Mumbaistatin was monitored by measuring the inhibition of glucose-6-phosphate translocase.
(§4) The production of the compound was monitored by measuring the inhibition of glucose-6-phosphate translocase.

[5] = tested on: rat liver microsomal glucose-6-phosphate translocase; experiment: as above; format: biochemical; conditions: translocase versus phosphatase activity
Excerpt: as §2, §3, §4

Which “effect on activity of phosphate/pyrophosphate translocase” value [1] does the source give for Mumbaistatin here?
Its value is “did not affect”.

What about the IC50 [2] of the same substance?
Its IC50 is roughly 300 nM.

And the IC50 [3]?
The IC50 was roughly 600 nM.

And the “mode of inhibition of glucose-6-phosphate translocase” value [4]?
The value was “reversible and competitive inhibitor”.

What about the IC50 ([4]; rat liver microsomal) of the same substance?
The IC50 was roughly 25 nM.

What about the “inhibition of glucose-6-phosphate translocase” value ([4]; rat liver microsomal) of the same substance?
The value was “potently inhibits”.

And the “specificity for translocase over phosphatase” value [5]?
Its value is “high degree of specificity for translocase”.
